Test results published in patent publication EP0908457B1, “3-(1,2-benzisothiazol- and isoxazol-5-Y1)-2,4(1H,3H)-pyrimidinedione or thione and 3-(1,2-benzisothiazol- and isoxazol-5-y1)-4(3H)-pyrimidinone or thione herbicidal agents” (BASF AKTIENGESELLSCHAFT, priority 1997, dated 1999).

Columns and labels:
[1] = system: Echinochloa oryzoides (Ard.) Fritsch.; test: Preemergence weed control under flooded paddy conditions, ECHORC (Watergrass (Calif.)); type: in vivo; settings: flooded paddy; for ECHORC: herbicidal effect rating 0-9, three to four weeks after treatment; for herbicidal effect rating, ECHORC: rated three to four weeks after treatment; as to herbicidal effect rating, ECHORC: meaning of each grade not given here
Cyperus iria = test: Preemergence weed control under flooded paddy conditions, CYPIR (Rice Flatsedge); type: in vivo; settings: flooded paddy; for CYPIR: herbicidal effect rating 0-9, three to four weeks after treatment; for herbicidal effect rating, CYPIR: rated three to four weeks after treatment; as to herbicidal effect rating, CYPIR: meaning of each grade not given here
[2] = system: Cyperus serotinus, Rottb.; test: Preemergence weed control under flooded paddy conditions, CYPSE (Flatsedge); type: in vivo; settings: for CYPSE: herbicidal effect rating 0-9, three to four weeks after treatment; for herbicidal effect rating, CYPSE: rated three to four weeks after treatment; as to herbicidal effect rating, CYPSE: meaning of each grade not given here
[3] = system: Monochoria vaginalis, Presl.; test: Preemergence weed control under flooded paddy conditions, MOOVA (Monochoria); type: in vivo; settings: flooded paddy; for MOOVA: herbicidal effect rating 0-9, three to four weeks after treatment; for herbicidal effect rating, MOOVA: rated three to four weeks after treatment; as to herbicidal effect rating, MOOVA: meaning of each grade not given here
Sagittaria pygmaea, L. = test: Preemergence weed control under flooded paddy conditions, SAGPY (Arrowhead (Pygmaea)); type: in vivo; settings: flooded paddy; for SAGPY: herbicidal effect rating 0-9, three to four weeks after treatment; for herbicidal effect rating, SAGPY: rated three to four weeks after treatment; as to herbicidal effect rating, SAGPY: meaning of each grade not given here
[4] = system: Oryza sativa, (L.) Tebonnet; test: Rice tolerance to post-transplant applications under flooded paddy conditions (Example 187), ORYSAT (Rice, Tebonnet); settings: for ORYSAT: herbicidal effect rating 0-9, three to four weeks after treatment; for herbicidal effect rating, ORYSAT (rice tolerance): rated three to four weeks after treatment
[5] = 0.0320 kg/ha, preemergence weeds
[6] = 0.0620 kg/ha, preemergence weeds
[7] = 0.1250 kg/ha, preemergence weeds
[8] = 0.2500 kg/ha, preemergence weeds
[9] = 0.0313 kg/ha, preemergence weeds
[10] = 0.0625 kg/ha, preemergence weeds

Cc1ccc(OCC(=O)N(C)S(C)(=O)=O)c(-c2nsc3ccc(-n4c(=O)cc(C(F)(F)F)n(C)c4=O)cc23)c1 [Example 437, Acetamide, 2-{{2-{5-[3,6-dihydro-3-methyl-2,6-dioxo-4-(trifluoromethyl)-1(2H)-pyrimidinyl]-1,2-benzisothiazol-3-yl}-p-tolyl}oxy}-N-methyl-N-(methylsulfonyl)-]
2.0: CYPSE [2, 6]
5.0: ECHORC [1, 5] | ORYSAT ([4]; 0.0620 kg/ha)
0.0: CYPIR (Cyperus iria; [5]) | CYPIR (Cyperus iria; [6]) | CYPSE [2, 5] | SAGPY (Sagittaria pygmaea, L.; [5])
9.0: MOOVA [3, 5] | MOOVA [3, 6] | MOOVA [3, 7] | MOOVA [3, 8]
8.0: ECHORC [1, 8]
7.0: ECHORC [1, 6] | ECHORC [1, 7] | CYPSE [2, 8] | SAGPY (Sagittaria pygmaea, L.; [8]) | ORYSAT ([4]; 0.2500 kg/ha)
3.0: CYPSE [2, 7] | SAGPY (Sagittaria pygmaea, L.; [6])
4.0: CYPIR (Cyperus iria; [7]) | SAGPY (Sagittaria pygmaea, L.; [7]) | ORYSAT ([4]; 0.0320 kg/ha)
6.0: CYPIR (Cyperus iria; [8]) | ORYSAT ([4]; 0.1250 kg/ha)

COCc1nsc2ccc(-n3c(=O)cc(C(F)(F)F)n(C)c3=O)cc12 [Example 31, 3-[3-(Methoxymethyl)-1,2-benzisothiazol-5-yl]-1-methyl-6-(trifluoromethyl)-2,4(1H,3H)-pyrimidinedione]
7.0: herbicidal effect rating, ECHORC ([1]; 0.0313 kg/ha, preemergence) | herbicidal effect rating, CYPSE ([2]; 0.0313 kg/ha, preemergence) | herbicidal effect rating, CYPSE ([2]; 0.0625 kg/ha, preemergence) | herbicidal effect rating, SAGPY (Sagittaria pygmaea, L.; 0.0625 kg/ha, preemergence)
8.5: herbicidal effect rating, ECHORC ([1]; 0.0625 kg/ha, preemergence)
8.0: herbicidal effect rating, CYPSE ([2]; 0.1250 kg/ha, preemergence) | herbicidal effect rating, ORYSAT (rice tolerance) ([4]; 0.0625 kg/ha) | herbicidal effect rating, ORYSAT (rice tolerance) ([4]; 0.2500 kg/ha)
9.0: herbicidal effect rating, ECHORC ([1]; 0.1250 kg/ha, preemergence) | herbicidal effect rating, ECHORC ([1]; 0.2500 kg/ha, preemergence) | herbicidal effect rating, CYPIR (Cyperus iria; 0.0313 kg/ha, preemergence) | herbicidal effect rating, CYPIR (Cyperus iria; 0.0625 kg/ha, preemergence) | herbicidal effect rating, CYPIR (Cyperus iria; 0.1250 kg/ha, preemergence) | herbicidal effect rating, CYPIR (Cyperus iria; 0.2500 kg/ha, preemergence) | herbicidal effect rating, CYPSE ([2]; 0.2500 kg/ha, preemergence) | herbicidal effect rating, MOOVA ([3]; 0.0313 kg/ha, preemergence) | herbicidal effect rating, MOOVA ([3]; 0.0625 kg/ha, preemergence) | herbicidal effect rating, MOOVA ([3]; 0.1250 kg/ha, preemergence) | herbicidal effect rating, MOOVA ([3]; 0.2500 kg/ha, preemergence) | herbicidal effect rating, SAGPY (Sagittaria pygmaea, L.; 0.1250 kg/ha, preemergence) | herbicidal effect rating, SAGPY (Sagittaria pygmaea, L.; 0.2500 kg/ha, preemergence)
7.5: herbicidal effect rating, ORYSAT (rice tolerance) ([4]; 0.0313 kg/ha) | herbicidal effect rating, ORYSAT (rice tolerance) ([4]; 0.1250 kg/ha)
4.0: herbicidal effect rating, SAGPY (Sagittaria pygmaea, L.; 0.0313 kg/ha, preemergence)

CCOCCOCc1nsc2ccc(-n3c(=O)cc(C(F)(F)F)n(C)c3=O)cc12 [Example 200, 3-{3-[(2-Ethoxyethoxy)methyl]-1,2-benzisothiazol-5-yl}-1-methyl-6-(trifluoromethyl)-2,4(1H,3H)-pyrimidinedione]
8.0: herbicidal effect rating, CYPIR (Cyperus iria; [8])
4.0: herbicidal effect rating, CYPIR (Cyperus iria; [9]) | herbicidal effect rating, SAGPY (Sagittaria pygmaea, L.; [8])
6.0: herbicidal effect rating, ECHORC [1, 7] | herbicidal effect rating, CYPIR (Cyperus iria; [10])
0.0: herbicidal effect rating, ECHORC [1, 9] | herbicidal effect rating, CYPSE [2, 9] | herbicidal effect rating, CYPSE [2, 10] | herbicidal effect rating, SAGPY (Sagittaria pygmaea, L.; [9]) | herbicidal effect rating, SAGPY (Sagittaria pygmaea, L.; [10]) | herbicidal effect rating, SAGPY (Sagittaria pygmaea, L.; [7])
7.0: herbicidal effect rating, CYPIR (Cyperus iria; [7]) | herbicidal effect rating, CYPSE [2, 8] | herbicidal effect rating, ORYSAT (rice tolerance) ([4]; 0.0313 kg/ha) | herbicidal effect rating, ORYSAT (rice tolerance) ([4]; 0.0625 kg/ha)
2.0: herbicidal effect rating, ECHORC [1, 10] | herbicidal effect rating, CYPSE [2, 7]
9.0: herbicidal effect rating, ECHORC [1, 8] | herbicidal effect rating, MOOVA [3, 9] | herbicidal effect rating, MOOVA [3, 10] | herbicidal effect rating, MOOVA [3, 7] | herbicidal effect rating, MOOVA [3, 8] | herbicidal effect rating, ORYSAT (rice tolerance) ([4]; 0.1250 kg/ha) | herbicidal effect rating, ORYSAT (rice tolerance) ([4]; 0.2500 kg/ha)

Cn1c(C(F)(F)F)cc(=O)n(-c2ccc3snc(C(CCl)CCl)c3c2)c1=O [Example 199, 3-{3-[2-Chloro-1-(chloromethyl)ethyl]-1,2-benzisothiazol-5-yl}-1-methyl-6-(trifluoromethyl)-2,4(1H,3H)-pyrimidinedione]
0.0: herbicidal effect rating, CYPIR (Cyperus iria; [9]) | herbicidal effect rating, CYPSE [2, 9] | herbicidal effect rating, CYPSE [2, 10] | herbicidal effect rating, CYPSE [2, 7] | herbicidal effect rating, CYPSE [2, 8] | herbicidal effect rating, SAGPY (Sagittaria pygmaea, L.; [9]) | herbicidal effect rating, SAGPY (Sagittaria pygmaea, L.; [10]) | herbicidal effect rating, SAGPY (Sagittaria pygmaea, L.; [7]) | herbicidal effect rating, SAGPY (Sagittaria pygmaea, L.; [8])
4.0: herbicidal effect rating, ECHORC [1, 10] | herbicidal effect rating, CYPIR (Cyperus iria; [7]) | herbicidal effect rating, ORYSAT (rice tolerance) ([4]; 0.0625 kg/ha)
3.0: herbicidal effect rating, ORYSAT (rice tolerance) ([4]; 0.0313 kg/ha)
2.0: herbicidal effect rating, ECHORC [1, 9] | herbicidal effect rating, CYPIR (Cyperus iria; [10])
6.0: herbicidal effect rating, ORYSAT (rice tolerance) ([4]; 0.1250 kg/ha)
9.0: herbicidal effect rating, MOOVA [3, 10] | herbicidal effect rating, MOOVA [3, 7] | herbicidal effect rating, MOOVA [3, 8]
7.0: herbicidal effect rating, ECHORC [1, 7] | herbicidal effect rating, ECHORC [1, 8]
8.0: herbicidal effect rating, CYPIR (Cyperus iria; [8]) | herbicidal effect rating, MOOVA [3, 9] | herbicidal effect rating, ORYSAT (rice tolerance) ([4]; 0.2500 kg/ha)
